Experiments:
[1] = target: 5-hydroxytryptamine receptor 2C (Homo sapiens, UniProt P28335); experiment: GPCRScan assay: inhibition of 5-HT2C; parameters: radioligand conc. used [nm] 1.0 – 2.5, parental cells HEK T
D(2) dopamine receptor [2] = target: T1, D(2) dopamine receptor (Homo sapiens, UniProt P14416); experiment: GPCRScan assay: inhibition of D2; parameters: radioligand conc. used [nm] 0.4 – 1.0, parental cells stable fibroblast
Histamine H4 receptor [3] = target: T2, Histamine H4 receptor (Homo sapiens, UniProt Q9H3N8); experiment: GPCRScan assay: inhibition of H4; parameters: radioligand conc. used [nm] 1.0 – 5.0, parental cells HEK T
T2 sequence (Q9H3N8 whole entry): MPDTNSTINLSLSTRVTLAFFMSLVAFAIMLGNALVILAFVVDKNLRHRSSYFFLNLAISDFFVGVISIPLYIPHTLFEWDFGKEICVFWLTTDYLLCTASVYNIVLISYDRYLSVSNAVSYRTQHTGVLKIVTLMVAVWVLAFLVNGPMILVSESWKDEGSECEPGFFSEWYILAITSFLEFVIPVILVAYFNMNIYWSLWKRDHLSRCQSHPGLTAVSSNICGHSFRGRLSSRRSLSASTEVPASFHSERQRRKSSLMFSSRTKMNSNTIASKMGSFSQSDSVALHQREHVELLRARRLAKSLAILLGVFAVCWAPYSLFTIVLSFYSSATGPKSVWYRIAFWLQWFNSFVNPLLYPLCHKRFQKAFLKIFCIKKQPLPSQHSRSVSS

[4] = target: T3, Sigma intracellular receptor 2 (Homo sapiens, UniProt Q5BJF2); experiment: GPCRScan assay: inhibition of Sigma 2; parameters: radioligand conc. used [nm] 5.0, parental cells HEKT
T3 sequence (Q5BJF2 whole entry): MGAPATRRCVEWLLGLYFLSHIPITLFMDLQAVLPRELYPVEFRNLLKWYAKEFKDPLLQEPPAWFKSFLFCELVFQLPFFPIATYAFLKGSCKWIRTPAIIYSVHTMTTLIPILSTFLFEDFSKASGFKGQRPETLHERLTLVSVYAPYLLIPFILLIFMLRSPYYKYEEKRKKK

[5] = target: Peptidyl-prolyl cis-trans isomerase FKBP2 (Homo sapiens, UniProt P26885); experiment: Competitive fluorescence polarization binding assay (FKBP2)
[6] = target: Peptidyl-prolyl cis-trans isomerase FKBP3 (Homo sapiens, UniProt Q00688); experiment: Competitive fluorescence polarization binding assay (FKBP3)
[7] = target: Peptidyl-prolyl cis-trans isomerase FKBP4 (Homo sapiens, UniProt Q02790); experiment: Competitive fluorescence polarization binding assay (FKBP4)
[8] = target: 5-hydroxytryptamine receptor 1A (Homo sapiens) (UniProt P08908); settings: Compound concentration 10.0 uM
[9] = target: 5-hydroxytryptamine receptor 1B (Homo sapiens) (UniProt P28222); settings: Compound concentration 10.0 uM
[10] = target: T4, 5-hydroxytryptamine receptor 1D (Homo sapiens, UniProt P28221); settings: Compound concentration 10.0 uM
T4 sequence (P28221 whole entry): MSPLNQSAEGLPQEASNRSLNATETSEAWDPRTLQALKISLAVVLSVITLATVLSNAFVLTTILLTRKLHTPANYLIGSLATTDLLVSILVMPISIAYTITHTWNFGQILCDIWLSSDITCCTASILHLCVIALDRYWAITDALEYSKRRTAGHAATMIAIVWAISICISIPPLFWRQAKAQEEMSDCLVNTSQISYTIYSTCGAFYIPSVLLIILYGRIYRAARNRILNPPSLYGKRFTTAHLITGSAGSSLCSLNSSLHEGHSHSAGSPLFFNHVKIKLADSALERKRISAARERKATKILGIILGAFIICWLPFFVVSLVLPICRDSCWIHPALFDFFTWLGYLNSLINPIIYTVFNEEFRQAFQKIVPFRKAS

[11] = target: 5-hydroxytryptamine receptor 2A (Homo sapiens) (UniProt P28223); settings: Compound concentration 10.0 uM
[12] = target: 5-hydroxytryptamine receptor 2B (Homo sapiens) (UniProt P41595); settings: Compound concentration 10.0 uM
Sequence of 5-hydroxytryptamine receptor 2B (Homo sapiens) (P41595 whole entry): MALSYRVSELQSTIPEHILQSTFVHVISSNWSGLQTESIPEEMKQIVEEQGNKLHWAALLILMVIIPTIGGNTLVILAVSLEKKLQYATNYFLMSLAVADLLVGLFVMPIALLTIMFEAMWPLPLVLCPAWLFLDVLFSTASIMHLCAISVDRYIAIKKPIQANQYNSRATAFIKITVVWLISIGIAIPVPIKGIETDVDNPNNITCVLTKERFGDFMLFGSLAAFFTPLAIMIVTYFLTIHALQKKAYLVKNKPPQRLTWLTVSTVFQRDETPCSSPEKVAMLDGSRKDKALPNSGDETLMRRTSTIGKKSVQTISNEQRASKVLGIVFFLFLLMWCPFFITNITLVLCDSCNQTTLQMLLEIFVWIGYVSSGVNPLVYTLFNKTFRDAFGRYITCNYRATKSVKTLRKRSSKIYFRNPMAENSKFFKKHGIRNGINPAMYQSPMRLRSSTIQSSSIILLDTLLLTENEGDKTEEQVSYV

[13] = target: 5-hydroxytryptamine receptor 2C (Homo sapiens) (UniProt P28335); settings: Compound concentration 10.0 uM
[14] = target: 5-hydroxytryptamine receptor 3A (Homo sapiens) (UniProt P46098); settings: Compound concentration 10.0 uM
[15] = target: 5-hydroxytryptamine receptor 5A (Homo sapiens) (UniProt P47898); settings: Compound concentration 10.0 uM
[16] = target: 5-hydroxytryptamine receptor 6 (Homo sapiens) (UniProt P50406); settings: Compound concentration 10.0 uM
[17] = target: 5-hydroxytryptamine receptor 7 (Homo sapiens) (UniProt P34969); settings: Compound concentration 10.0 uM
Sequence of 5-hydroxytryptamine receptor 7 (Homo sapiens) (P34969 whole entry): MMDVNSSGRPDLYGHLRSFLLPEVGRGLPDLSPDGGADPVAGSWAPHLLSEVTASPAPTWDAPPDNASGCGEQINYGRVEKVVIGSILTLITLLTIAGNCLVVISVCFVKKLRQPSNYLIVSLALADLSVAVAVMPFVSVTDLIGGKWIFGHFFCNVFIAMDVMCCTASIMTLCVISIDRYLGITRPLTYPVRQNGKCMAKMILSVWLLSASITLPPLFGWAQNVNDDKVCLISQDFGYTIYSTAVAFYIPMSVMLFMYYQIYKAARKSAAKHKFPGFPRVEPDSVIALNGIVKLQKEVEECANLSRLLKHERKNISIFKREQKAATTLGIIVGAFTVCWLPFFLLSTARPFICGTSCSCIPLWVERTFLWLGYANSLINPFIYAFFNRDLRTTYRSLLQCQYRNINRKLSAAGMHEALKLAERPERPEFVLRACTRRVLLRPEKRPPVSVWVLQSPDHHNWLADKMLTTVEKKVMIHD

[18] = target: D(1A) dopamine receptor (Homo sapiens) (UniProt P21728); settings: Compound concentration 10.0 uM
D(2) dopamine receptor [19] = target: T1, D(2) dopamine receptor; settings: Compound concentration 10.0 uM
[20] = target: D(3) dopamine receptor (Homo sapiens) (UniProt P35462); settings: Compound concentration 10.0 uM
[21] = target: D(4) dopamine receptor (Homo sapiens) (UniProt P21917); settings: Compound concentration 10.0 uM
[22] = target: D(1B) dopamine receptor (Homo sapiens) (UniProt P21918); settings: Compound concentration 10.0 uM
[23] = target: Sodium-dependent serotonin transporter (Homo sapiens) (UniProt P31645); settings: Compound concentration 10.0 uM
[24] = target: T5, Sodium-dependent noradrenaline transporter (Homo sapiens, UniProt P23975); settings: Compound concentration 10.0 uM
T5 sequence (P23975 whole entry): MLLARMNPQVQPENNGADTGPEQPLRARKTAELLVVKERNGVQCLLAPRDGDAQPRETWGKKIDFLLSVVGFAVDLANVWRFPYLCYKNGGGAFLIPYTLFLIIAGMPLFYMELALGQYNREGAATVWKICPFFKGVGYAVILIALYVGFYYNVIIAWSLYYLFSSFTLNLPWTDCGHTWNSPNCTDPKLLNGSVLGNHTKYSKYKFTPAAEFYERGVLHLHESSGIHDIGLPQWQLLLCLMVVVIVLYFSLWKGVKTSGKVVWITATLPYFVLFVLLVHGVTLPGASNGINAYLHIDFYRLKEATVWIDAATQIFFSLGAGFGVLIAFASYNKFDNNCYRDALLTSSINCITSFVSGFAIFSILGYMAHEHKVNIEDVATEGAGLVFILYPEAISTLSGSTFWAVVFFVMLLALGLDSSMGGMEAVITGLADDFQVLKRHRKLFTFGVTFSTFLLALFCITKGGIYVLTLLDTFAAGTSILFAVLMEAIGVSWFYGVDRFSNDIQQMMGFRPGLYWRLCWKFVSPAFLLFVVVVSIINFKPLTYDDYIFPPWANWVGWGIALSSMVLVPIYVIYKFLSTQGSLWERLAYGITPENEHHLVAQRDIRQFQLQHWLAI

[25] = target: T6, Sodium-dependent dopamine transporter (Homo sapiens, UniProt Q01959); settings: Compound concentration 10.0 uM
T6 sequence (Q01959 whole entry): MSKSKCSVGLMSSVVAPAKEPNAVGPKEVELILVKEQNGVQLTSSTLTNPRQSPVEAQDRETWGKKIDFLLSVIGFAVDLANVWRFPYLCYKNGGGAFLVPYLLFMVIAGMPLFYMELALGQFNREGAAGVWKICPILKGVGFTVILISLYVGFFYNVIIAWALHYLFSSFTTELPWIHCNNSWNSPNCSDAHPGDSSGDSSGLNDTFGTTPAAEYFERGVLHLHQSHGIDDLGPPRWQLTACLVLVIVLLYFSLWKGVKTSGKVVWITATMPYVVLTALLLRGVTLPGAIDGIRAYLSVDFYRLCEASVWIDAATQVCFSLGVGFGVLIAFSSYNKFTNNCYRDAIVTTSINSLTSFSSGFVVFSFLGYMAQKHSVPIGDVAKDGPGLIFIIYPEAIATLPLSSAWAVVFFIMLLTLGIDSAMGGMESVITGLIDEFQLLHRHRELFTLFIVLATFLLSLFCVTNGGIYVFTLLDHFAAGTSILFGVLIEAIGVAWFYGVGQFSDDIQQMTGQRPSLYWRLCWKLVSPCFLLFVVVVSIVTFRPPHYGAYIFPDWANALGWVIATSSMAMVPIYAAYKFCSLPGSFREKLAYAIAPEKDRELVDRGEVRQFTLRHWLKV

[26] = target: Mu-type opioid receptor (Homo sapiens) (UniProt P35372); settings: Compound concentration 10.0 uM
[27] = target: Delta-type opioid receptor (Homo sapiens) (UniProt P41143); settings: Compound concentration 10.0 uM
Sequence of Delta-type opioid receptor (Homo sapiens) (P41143 whole entry): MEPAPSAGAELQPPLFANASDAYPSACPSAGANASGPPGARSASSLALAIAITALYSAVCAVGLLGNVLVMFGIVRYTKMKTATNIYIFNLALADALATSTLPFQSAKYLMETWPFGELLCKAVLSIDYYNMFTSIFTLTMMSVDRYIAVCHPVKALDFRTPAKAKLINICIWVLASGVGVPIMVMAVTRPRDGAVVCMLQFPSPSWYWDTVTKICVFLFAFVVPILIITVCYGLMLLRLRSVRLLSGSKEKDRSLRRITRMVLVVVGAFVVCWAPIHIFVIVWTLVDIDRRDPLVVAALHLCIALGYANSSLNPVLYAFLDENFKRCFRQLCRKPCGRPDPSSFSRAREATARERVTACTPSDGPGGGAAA

[28] = target: Kappa-type opioid receptor (Homo sapiens) (UniProt P41145); settings: Compound concentration 10.0 uM
Sequence of Kappa-type opioid receptor (Homo sapiens) (P41145 whole entry): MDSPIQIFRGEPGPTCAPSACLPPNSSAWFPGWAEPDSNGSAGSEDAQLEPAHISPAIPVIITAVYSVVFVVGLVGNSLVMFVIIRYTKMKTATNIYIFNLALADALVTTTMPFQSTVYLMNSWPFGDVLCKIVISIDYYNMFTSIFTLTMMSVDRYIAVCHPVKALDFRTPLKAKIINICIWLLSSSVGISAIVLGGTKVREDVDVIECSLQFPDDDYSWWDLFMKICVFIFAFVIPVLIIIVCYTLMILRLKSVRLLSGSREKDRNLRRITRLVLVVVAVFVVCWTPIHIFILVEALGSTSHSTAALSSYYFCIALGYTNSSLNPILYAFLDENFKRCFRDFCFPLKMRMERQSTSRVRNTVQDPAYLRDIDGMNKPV

[29] = target: T7, GABA-A receptor; anion channel (Rattus norvegicus) (UniProt O09028+P15431+P18506+P18508+P19969+P20236+P23574+P23576+P28471+P28473+P30191+P62813+P63079+P63138+Q91ZM7+Q9ES14); settings: Compound concentration 10.0 uM
[30] = target: Histamine H1 receptor (Homo sapiens) (UniProt P35367); settings: Compound concentration 10.0 uM
Histamine H2 receptor [31] = target: T8, Histamine H2 receptor (Homo sapiens, UniProt P25021); settings: Compound concentration 10.0 uM
T8 sequence (P25021 whole entry): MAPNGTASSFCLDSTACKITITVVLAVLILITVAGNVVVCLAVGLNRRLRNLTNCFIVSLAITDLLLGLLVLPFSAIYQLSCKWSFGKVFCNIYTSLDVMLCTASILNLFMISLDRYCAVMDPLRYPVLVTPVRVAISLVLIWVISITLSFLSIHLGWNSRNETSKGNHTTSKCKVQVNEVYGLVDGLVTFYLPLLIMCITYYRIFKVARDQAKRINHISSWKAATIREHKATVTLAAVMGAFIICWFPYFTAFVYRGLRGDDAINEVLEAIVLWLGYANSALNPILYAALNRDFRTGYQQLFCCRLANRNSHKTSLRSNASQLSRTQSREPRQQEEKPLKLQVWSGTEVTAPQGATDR

[32] = target: Histamine H3 receptor (Homo sapiens) (UniProt Q9Y5N1); settings: Compound concentration 10.0 uM
Histamine H4 receptor [33] = target: T2, Histamine H4 receptor; settings: Compound concentration 10.0 uM
[34] = target: Alpha-1A adrenergic receptor (Homo sapiens) (UniProt P35348); settings: Compound concentration 10.0 uM
[35] = target: Alpha-1B adrenergic receptor (Homo sapiens) (UniProt P35368); settings: Compound concentration 10.0 uM
[36] = target: Alpha-2A adrenergic receptor (Homo sapiens) (UniProt P08913); settings: Compound concentration 10.0 uM
[37] = target: Alpha-2B adrenergic receptor (Homo sapiens) (UniProt P18089); settings: Compound concentration 10.0 uM
[38] = target: Alpha-2C adrenergic receptor (Homo sapiens) (UniProt P18825); settings: Compound concentration 10.0 uM
[39] = target: Beta-1 adrenergic receptor (Homo sapiens) (UniProt P08588); settings: Compound concentration 10.0 uM
[40] = target: Beta-2 adrenergic receptor (Homo sapiens) (UniProt P07550); settings: Compound concentration 10.0 uM
[41] = target: Muscarinic acetylcholine receptor M1 (Homo sapiens) (UniProt P11229); settings: Compound concentration 10.0 uM
[42] = target: Muscarinic acetylcholine receptor M2 (Homo sapiens) (UniProt P08172); settings: Compound concentration 10.0 uM
[43] = target: Muscarinic acetylcholine receptor M3 (Homo sapiens) (UniProt P20309); settings: Compound concentration 10.0 uM
[44] = target: Muscarinic acetylcholine receptor M4 (Homo sapiens) (UniProt P08173); settings: Compound concentration 10.0 uM
[45] = target: Muscarinic acetylcholine receptor M5 (Homo sapiens) (UniProt P08912); settings: Compound concentration 10.0 uM
[46] = target: Beta-3 adrenergic receptor (Homo sapiens) (UniProt P13945); settings: Compound concentration 10.0 uM
[47] = target: T7, GABA-A receptor; anion channel (Rattus norvegicus); settings: Compound concentration 10.0 uM; remark: listed apart in the source
Rattus norvegicus = species on record: Rattus norvegicus; settings: Compound concentration 10.0 uM
[48] = target: T3, Sigma intracellular receptor 2; settings: Compound concentration 10.0 uM
[49] = target: T9, Sigma non-opioid intracellular receptor 1 (Homo sapiens, UniProt Q99720); settings: Compound concentration 10.0 uM
T9 sequence (Q99720 whole entry): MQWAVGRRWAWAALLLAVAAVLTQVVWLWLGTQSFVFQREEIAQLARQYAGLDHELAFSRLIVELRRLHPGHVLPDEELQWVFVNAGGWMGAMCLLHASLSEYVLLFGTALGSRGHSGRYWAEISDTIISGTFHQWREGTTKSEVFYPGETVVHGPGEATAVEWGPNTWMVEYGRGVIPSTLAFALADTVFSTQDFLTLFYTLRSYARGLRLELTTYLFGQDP

[50] = target: T4, 5-hydroxytryptamine receptor 1D; experiment: GPCRScan assay: inhibition of 5-HT1D; parameters: radioligand conc. used [nm] 1.0 – 2.0, parental cells HEKT
[51] = target: T5, Sodium-dependent noradrenaline transporter; experiment: GPCRScan assay: inhibition of NET; parameters: radioligand conc. used [nm] 1.3 – 5.0, parental cells stable HEK
[52] = target: T6, Sodium-dependent dopamine transporter; experiment: GPCRScan assay: inhibition of DAT; parameters: radioligand conc. used [nm] 3.6 – 16.0, parental cells stable HEK
Histamine H2 receptor [53] = target: T8, Histamine H2 receptor; experiment: GPCRScan assay: inhibition of H2; parameters: radioligand conc. used [nm] 0.02 – 0.05, parental cells Stable HEK
[54] = target: T9, Sigma non-opioid intracellular receptor 1; experiment: GPCRScan assay: inhibition of Sigma 1; parameters: radioligand conc. used [nm] 4.0 – 5.0, parental cells HEKT
[55] = target: 5-hydroxytryptamine receptor 1E (Homo sapiens) (UniProt P28566); settings: Compound concentration 10.0 uM

T1 sequence (P14416 whole entry): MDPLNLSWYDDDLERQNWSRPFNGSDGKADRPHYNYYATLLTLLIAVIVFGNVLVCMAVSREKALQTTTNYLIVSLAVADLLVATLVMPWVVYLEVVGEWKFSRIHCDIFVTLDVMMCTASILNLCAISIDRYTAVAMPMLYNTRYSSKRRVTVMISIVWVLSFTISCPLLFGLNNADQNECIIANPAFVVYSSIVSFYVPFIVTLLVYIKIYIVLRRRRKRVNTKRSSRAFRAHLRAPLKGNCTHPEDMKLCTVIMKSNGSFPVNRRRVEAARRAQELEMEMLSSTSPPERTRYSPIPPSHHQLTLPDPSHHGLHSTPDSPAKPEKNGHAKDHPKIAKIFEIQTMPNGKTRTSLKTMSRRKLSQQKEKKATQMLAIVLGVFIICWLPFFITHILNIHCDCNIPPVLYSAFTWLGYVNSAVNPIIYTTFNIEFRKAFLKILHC

COc1ccc(CC[C@@H](OC(=O)[C@@H]2CCCCN2C(=O)[C@H](c2cc(OC)c(OC)c(OC)c2)C2CCCCC2)c2cccc(OCCN3CCOCC3)c2)cc1OC
Ki [1]: > 10 µM | Ki (D(2) dopamine receptor [2]): > 10 µM | Ki (Histamine H4 receptor [3]): 3.38 µM | Ki [4]: 0.226 µM | Kd [5]: 1.05 µM (not active) | Kd [6]: > 10 µM (not active) | Kd [7]: > 50 µM (not active) | inhibition [8]: -0.3% | inhibition [9]: 0.6% | inhibition [10]: 15.5% | inhibition [11]: 21.9% | inhibition [12]: 8.5% | inhibition [13]: 56.1% | inhibition [14]: 7.6% | inhibition [15]: 25.9% | inhibition [16]: 9.5% | inhibition [17]: 3% | inhibition [18]: 24.3% | inhibition (D(2) dopamine receptor [19]): 50% | inhibition [20]: 39.7% | inhibition [21]: 8.1% | inhibition [22]: 9.2% | inhibition [23]: 9.5% | inhibition [24]: 36.9% | inhibition [25]: 41% | inhibition [26]: 20.9% | inhibition [27]: 13.4% | inhibition [28]: 5.9% | inhibition [29]: 17.2% | inhibition [30]: 37.9% | inhibition (Histamine H2 receptor [31]): 30.3% | inhibition [32]: 12.9% | inhibition (Histamine H4 receptor [33]): 71.8% | inhibition [34]: 6.7% | inhibition [35]: -1.1% | inhibition [36]: 23.8% | inhibition [37]: 7.6% | inhibition [38]: 49.7% | inhibition [39]: -6.5% | inhibition [40]: 14.5% | inhibition [41]: 7.5% | inhibition [42]: 7% | inhibition [43]: 0.4% | inhibition [44]: 3.4% | inhibition [45]: 20.5% | inhibition [46]: 37.1% | inhibition [47]: -9.9% | inhibition (Rattus norvegicus): 3.1% | inhibition [48]: 84.9% | inhibition [49]: 49.4%

COc1ccc(CC[C@@H](OC(=O)[C@H]2CCCCN2C(=O)[C@@H](c2cc(OC)c(OC)c(OC)c2)C2CCCCC2)c2cccc(OCCN3CCOCC3)c2)cc1OC
Ki ([50]; read-out: Ki): 3.13 µM | Ki ([50]; read-out: pKi (converted)): 3.09 µM | Ki [51]: > 10 µM | pKi [51]: < 5 | Ki ([52]; read-out: Ki): 2.18 µM | Ki ([52]; read-out: pKi (converted)): 2.19 µM | Ki (Histamine H2 receptor [53]; read-out: Ki): 2.96 µM | Ki (Histamine H2 receptor [53]; read-out: pKi (converted)): 2.69 µM | Ki [4]: 0.409 µM | Ki [54]: 2.85 µM | inhibition [8]: 12.2% | inhibition [9]: 30.2% | inhibition [10]: 57% | inhibition [55]: 12.6% | inhibition [11]: 4.4% | inhibition [12]: 19.4% | inhibition [14]: 0.13% | inhibition [15]: 6.87% | inhibition [17]: -3.87% | inhibition [18]: 19.1% | inhibition (D(2) dopamine receptor [19]): 14.7% | inhibition [20]: 28.1% | inhibition [21]: 9.71% | inhibition [22]: 4.07% | inhibition [23]: -5.1% | inhibition [24]: 52.4% | inhibition [25]: 68.4% | inhibition [26]: 4.34% | inhibition [27]: 4.39% | inhibition [28]: 5.75% | inhibition [30]: 14.2% | inhibition (Histamine H2 receptor [31]): 50.7% | inhibition [32]: 10.2% | inhibition (Histamine H4 receptor [33]): 49.5% | inhibition [35]: -5.8% | inhibition [36]: 26.6% | inhibition [37]: 19.7% | inhibition [38]: 25.2% | inhibition [39]: -0.58% | inhibition [41]: 4.82% | inhibition [43]: -3.44% | inhibition [44]: 18% | inhibition [45]: -1.68% | inhibition [46]: 35.1% | inhibition [47]: 20.6% | inhibition [48]: 98.4% | inhibition [49]: 58.1%
